From patent US20250152559A1, “METHODS FOR TREATING MYC-AMPLIFIED CANCER” (The Governing Council of the University of Toronto, priority 2023, published 2025)
“And” between values parts separate entries of the source, which are not always exact repeats. Equal values may be shown once.

Experiments:
HD-MB03 flank xenograft = test: Subcutaneous flank xenograft, IVIS, H&E and Ki67 IHC; format: in vivo, mice
Experimental: (§1) In parallel to these experiments, subcutaneous flank xenografts were engrafted into two cohorts of mice, which were treated with the vehicle or R2. […] To investigate the pharmacokinetics of BAY in vivo, its concentration in plasma and brain tissues of healthy mice was directly quantified using an LC-MS approach. BAY was detected in both brains and plasma of mice undergoing treatment, however the plasma concentrations exceeded those of the brain by approximately 10-fold (FIG. 5H-I). To determine whether treatment with BAY affects de novo pyrimidine biosynthesis in vivo, changes in pyrimidine metabolism were measured in the brain in comparison to tumor tissues from the flank (FIG. 5J-K). Although BAY treatment impacted de novo pyrimidine metabolism in vivo in both brain and tumor tissues, with a similar pattern observed in vitro (FIG. 4A), the effect size was stronger in peripheral tumor tissue in comparison to brain tissue. Such findings further reflect the limited capacity for BAY to accumulate within the brain.
To examine histological consequences of DHODH inhibition in vivo, the xenografts from the flanks of BAY- and vehicle-treated mice were surgically resected one day after administering the final dose.
FFPE tissues were sectioned onto slides and then deparaffinized prior to analysis. Samples were stained with H&E for histological examination. In parallel, sections were blocked in 5% BSA (anti-Ki67, anti-4E-BP1 Thr37/46, anti-DHODH) or 5% NGS (anti-EGR1) and stained with primary antibody at 4° C. overnight. […]
PDOX were generated by engrafting 25,000 tumor cells (both SU_MB002 and HD-MB03 cell lines), suspended in 5 μL PBS, directly into the mouse cerebrum. […] Tumor area was manually measured in H&E-stained sections of FFPE tissues using ImageJ.
For imaging via the in vivo imaging system (IVIS), mice were sedated with isoflurane gas and then administered luciferin substrate (150 mg/kg in PBS) via subcutaneous injection. After 10 minutes, bioluminescent signal (photons per second; p/s) was quantified using Living Image software.

[1] = system: de novo pyrimidine biosynthesis in flank tumor tissue; test: LC-MS metabolome profiling of flank xenograft tissues of treated mice; format: in vivo; conditions: individual samples, listed as BAY
Experimental: as §1
For metabolome profiling of tissues, ˜5 mg tissue were homogenized in 225 μL of −20° C. cold, methanol using a Bullet Blender Tissue Homogenizer (NextAdvance, Inc.) Bullet for 3 min. The homogenate was vortexed for 20 s and 750 μL of −20° C. cold methyl tertiary-butyl ether (MTBE) was added, and the mixture was vortexed for 10 s and shaken at 4° C. for 5 min. Next, 188 μL room temperature water was added and vortexed for 20 s to induce phase separation. After centrifugation for 5 min at 14,000×g, the bottom polar phase was collected and dried down. Metabolite extracts were reconstituted in LC-MS grade water/acetonitrile (50:50; v:v), vortexed for 1 min, sonicated for 15 min, and centrifuged at 16,000×g and 4° C. for 15 min to remove insoluble debris.
The LC-MS metabolomics and lipidomics analyses of the 3 NSC and 3 MB cell lines and tissues were performed on a UPLC-MS system consisting of an Orbitrap IQ-X Tribrid coupled to a Horizon Vanquish UPLC system (Thermo Fisher Scientific). The lipidomics analysis was conducted in positive-ion mode with a spray voltage of 3.5 kV while the metabolomics analysis was conducted in negative-ion mode with a spray voltage of −2.5 kV. The following source conditions were identical in both analyses and were set as follows: Sheath gas flow rate, 50 arbitrary units; Aux. gas flow rate, 10 arbitrary units; Sweep gas flow rate, 1 arbitrary unit; Ion transfer tube temp., 300° C.; Vaporizer temp., 350° C. The following acquisition parameters were used for MS1 analysis in both methods: resolution, 120,000, AGC target, 4e5. The maximum IT was set at […] for the lipidomics analysis and 200 ms for the metabolomics analysis. Data-dependent MS/MS parameters for the lipidomics analyses: resolution, 30,000; AGC target, 7.5e4; maximum IT, Dynamic (54 ms); time between Master Scans, 0.6 s; isolation window, 1.0 m/z; NCE/stepped nce, 20, 30, 40; intensity threshold, 5e4; exclude isotopes, on; dynamic exclusion, 3.0 s. Data-dependent MS/MS parameters for the metabolomics analyses: resolution. 15,000; AGC target, 7.5e4; maximum IT, Dynamic (22 ms); time between Master Scans, 0.6 s; isolation window, 1.0 m/z; NCE/stepped nce, 20, 30, 40, 50; intensity threshold, 5e4; exclude isotopes, on; dynamic exclusion, 5.0 s. To increase the total number of MS/MS spectra in the lipidomics analysis, five runs with iterative MS/MS exclusions were performed using the AcquireX function in Xcalibur (Thermo Fisher Scientific). In the metabolomics analysis, three runs with iterative MS/MS exclusions were performed using the AcquireX function. For the lipidomics analysis, chromatographic separation was achieved using a Waters Acquity UPLC CSH C18 (100 mm×2.1 mm i.d.; 1.7 μm) column injecting 2 μL. […] The column was equilibrated for 2 min at 15% B. The flow rate was set to 250 μL/min. The column temperature was maintained at 65° C. […]

[2] = system: p-4EBP1 and EGR1 expression in PDOX; test: IHC of time-matched PDOX from brains of treated mice; format: in vivo; conditions: PDOX after final dose, vs vehicle-treated PDOX
Experimental: To determine whether mechanisms identified in vitro extend to the in vivo orthotopic model, time-matched PDOX were isolated from the brains of BAY-treated mice after the final dose of BAY was administered. […] An infrequent EGR1^+ subpopulation of tumor cells was also detected, which varied in the levels of nuclear EGR1 expression (FIG. 10H).
FFPE tissues were sectioned onto slides and then deparaffinized prior to analysis. Samples were stained with H&E for histological examination. In parallel, sections were blocked in 5% BSA (anti-Ki67, anti-4E-BP1 Thr37/46, anti-DHODH) or 5% NGS (anti-EGR1) and stained with primary antibody at 4° C. overnight. Rabbit anti-Ki67 (Thermo Fisher Scientific; Catalogue #RM-9106-S0) was diluted 1:100, rabbit anti-EGR1 (Cell Signaling Technologies; catalogue #4145) was diluted 1:200, rabbit anti-4E-BP1 Thr37/46 (Cell Signaling Technologies; catalogue #2855) was diluted 1:1000, and rabbit anti-DHODH (Proteintech 14877-1-AP) was diluted 1:200. Anti-rabbit HRP-conjugated secondary antibodies (Abcam; Catalogue #ab214880) were used with DAB for development (Vector Laboratories; Catalogue #SK-4100). All slides were scanned using Image Scope (Aperio).

[3] = flank tumor tissue of BAY-treated mice

In the case of `CCn1c(CO)nn(-c2cc(O[C@@H](C)C(F)(F)F)c(C(=O)Nc3c(F)cccc3Cl)cc2F)c1=O` [BAY2402234], the “antitumoral response of flank tumors compared to orthotopic xenografts” value (HD-MB03 flank xenograft; HD-MB03 flank, R2) is reported as “much stronger antitumoral response”, the “tumor cell density (H&E)” value (HD-MB03 flank xenograft; flank xenografts resected one day after final dose, vs vehicle) is reported as “remarkably reduced” and the “Ki67 expression (IHC) in surviving tumor cells” value (HD-MB03 flank xenograft; residual flank xenograft tissues) is reported as “reduction in Ki67 expression”. The “Glutamine normalized peak intensity (Area)” value [1, 3] was 55492788 and 50587148 and 68843176 and 56207472, the “N-Carbamoyl aspartic acid normalized peak intensity (Area)” value [1, 3] was 385157056 and 380028608 and 450759360 and 384681824 and the “Orotic acid normalized peak intensity (Area)” value [1, 3] was 33617724 and 35906864 and 46970420 and 34348420. For the same compound, the “UDP-GluNAc normalized peak intensity (Area)” value [1, 3] was 2589539 and 2049874 and 3781049 and 10999488, the “UTP normalized peak intensity (Area)” value [1, 3] was 4036 and 1148 and 5307 and 1474 and the “Uridine 5′-diphosphate (UDP) normalized peak intensity (Area)” value [1, 3] was 5654 and 1891 and 15124 and 5023. The “Uridine 5′-monophosphate normalized peak intensity (Area)” value [1, 3] was 17895140 and 14218088 and 25187528 and 9202930, the “Uridine normalized peak intensity (Area)” value [1, 3] was 1736921 and 2207031 and 3920911 and 1886173 and the “dihydroorotic acid normalized peak intensity (Area)” value [1, 3] was 119216720 and 62149264 and 89191448 and 46399468. The “BAY-2402234 normalized peak intensity (Area)” value [1] was 249608 and 266857 and 361684 and 146195, the “EGR1 expression (IHC)” value [2] was “induced EGR1 expression” and the “p-4EBP1 expression (IHC)” value [2] was “decreased p-4EBP1 expression”.
